Measured values from paper PMC10013768, “The efficacy of anti‐proteolytic peptide R7I in intestinal inflammation, function, microbiota, and metabolites by multi‐omics analysis in murine bacterial enteritis” (Bioengineering & Translational Medicine, 2022).
≈ marks a conversion by molar mass, not a printed value. Ends that are not written are not given here.

Legend:
Escherichia coli 25922 = assay: MIC against E. coli 25922 after incubation of the peptide with mouse serum, gastric juice, small intestinal juice or PBS; type: cell-based; details: for MIC after incubation with gastric juice (GAJ), 1h: mouse gastric juice (stomach tissue + PBS pH 2.0, w/w 1:1, supernatant) mixed with peptide v/v 1:1, peptide 1.28 mM, MIC = lowest concentration killing >95% of cells; for MIC after incubation with serum, 1h / MIC after incubation with serum, 4h / MIC after incubation with serum, 8h: mouse serum mixed with peptide v/v 4:1, 1.28 mM; for Effect of the serum environment on antimicrobial activity: mouse serum, 1-8 h incubation, read-out MIC vs E. coli 25922; for MIC after incubation with small intestinal juice (SIJ), 1h: mouse small intestine contents + PBS pH 7.0 (w/w 1:9, supernatant) mixed with peptide v/v 1:1, 1.28 mM; for MIC after incubation in PBS2.0, 1h / MIC after incubation in PBS2.0, 4h / MIC after incubation in PBS2.0, 8h: phosphate-buffered saline pH 2.0, 37°C; for MIC after incubation in PBS7.0, 1h / MIC after incubation in PBS7.0, 4h / MIC after incubation in PBS7.0, 8h: phosphate-buffered saline pH 7.0, 37°C
Procedure: FIGURE 2 (a) Schematic diagram of the experimental scheme. Red and green arrows indicate the number of oral administrations and corresponding time points, respectively. (b) The experimental group design. (c) R7I MIC changes after incubation with serum, gastric juice, and small intestine fluid against Escherichia coli 25922. Minimum inhibitory concentrations (MICs, μM) were determined as the lowest peptide concentrations that killed greater than 95% of the bacterial cells. A value >64 indicates no detectable antibacterial activity at 64 μM. GAJ, gastric juice; SIJ, small intestinal juice; PBS2.0 and PBS7.0, phosphate‐buffered saline (pH = 2.0 or pH = 7.0); E. coli, Escherichia coli 25922 TEXT PRINTED IN THE PICTURE: (c) R7I + GAJ + E. coli: 1h: 2; 4h: 2; 8h: 2 | (c) R7I + SIJ + E. coli: 1h: 2; 4h: 4; 8h: 4 | (c) R7I + Serum + E. coli: 1h: 2; 4h: 2; 8h: 2 | (c) Melittin + GAJ + E. coli: 1h: >64; 4h: >64; 8h: >64 | (c) Melittin + SIJ + E. coli: 1h: >64; 4h: >64; 8h: >64 | (c) Melittin + Serum + E. coli: 1h: 4; 4h: 8; 8h: 8 | (c) R7I + PBS2.0 + E. coli: 1h: 2; 4h: 2; 8h: 2 | (c) R7I + PBS7.0 + E. coli: 1h: 2; 4h: 2; 8h: 2 | (c) Melittin + PBS2.0 + E. coli: 1h: 2; 4h: 2; 8h: 2 | (c) Melittin + PBS7.0 + E. coli: 1h: 2; 4h: 2; 8h: 2
The C57BL/6 male mice aged 6 weeks were provided by Liaoning Changsheng Biotechnology Co., Ltd., China and euthanized at 10:00 am. The serum was collected and mixed with R7I (v/v = 4:1) to give a final peptide concentration of 1.28 mM. The stomach (cut in half) and the contents of the entire small intestine of the mice were collected and placed in a sterile eppendorf tube. Sterile PBS was added to gastric tissue (w/w = 1:1, pH = 2.0) and small intestine contents (w/w = 1:9, pH = 7.0), and mixed thoroughly by shaking. The mixture was centrifuged to obtain the supernatant as gastric juice and small intestine juice. R7I was dissolved with the corresponding pH PBS. The prepared gastric and small intestine fluids were then mixed separately with R7I (v/v = 1:1) to give a final peptide concentration of 1.28 mM. Melittin was used here as a control. The peptide mixture was incubated in a 37°C incubator for 1, 4 and 8 h. Finally, the minimum inhibitory concentrations (MICs) test was performed to verify peptide activity with Escherichia coli 25922.[18]

[1] = earlier research; cited from earlier work
From the text: Importantly, compared with other anti‐proteolytic peptides containing unnatural amino acids, R7I was completely composed of natural amino acids and had dramatic resistance to a high concentration of protease hyd ...

[2] = test system: pepsin, trypsin, chymotrypsin, and proteinase K; details: in vitro; cited from earlier work
[3] = test system: E. coli ATCC 25922 bacterial enteritis model in mice; assay: Bacterial enteritis model: serum biochemical indices; type: in vivo, C57BL/6 male mice; details: other doses of R7I (30, 40 mg/kg) and colistin sulfate 20 mg/kg, oral
Procedure: (§1) The mice were divided into six groups randomly: (1) the control group (E. coli + normal saline); the administration group (E. coli + R7I) is set to three concentration gradients: (2) 20 mg/kg, (3) 30 mg/kg, and (4) 40 mg/kg of body weight; (5) the antibiotic group (E. coli + colistin sulfate), 20 mg/kg of body weight; and (6) the blank group with only normal saline (Figure 2b).
(§2) The blank group was gavaged with 200 μl of saline, and all other groups were gavaged twice with E. coli ATCC 25922 (200 μl) once a day (d1‐2). R7I at different concentrations and colistin sulfate were given twice (12 h intervals) on the d3 and once on d4‐5 by oral administration. Correspondingly, an equal amount of saline was given to the blank and control groups in the same way. On day 6, all mice were euthanized by cervical dislocation under full anesthesia with isoflurane.
Serum biochemical indices of alanine aminotransferase (ALT), aspartate aminotransferase (AST), alkaline phosphatase (ALP), total bilirubin (TBIL), cholinesterase (CHE), creatinine (CREA), creatine kinase (CK), urea nitrogen (BUN), lactate dehydrogenase (LDH), total protein (TP), albumin (ALB), and globulin (GLB) were measured by the automatic biochemical analyzer (Roche, Cobus‐Mira‐Plus, Roche Diagnostic System Inc., Basel, Switzerland).

[4] = test system: E. coli ATCC 25922 bacterial enteritis model in mice; assay: Bacterial enteritis model: antioxidant function of the liver; type: in vivo, C57BL/6 male mice; details: oral R7I (20, 30, 40 mg/kg) or colistin sulfate 20 mg/kg; vs control group; n = 6
Procedure: as §1, §2
Total antioxidant capacity (T‐AOC), superoxide dismutase (SOD), glutathione peroxidase (GSH‐Px), malondialdehyde (MDA), and catalase (CAT) enzyme activities in the liver were determined using commercially available kits (Nanjing Jiancheng Bioengineering Institute, Nanjing, China) according to the manufacturer's instructions.

[5] = test system: E. coli ATCC 25922 bacterial enteritis model in mice; assay: Bacterial enteritis model: serum D-lactic acid, diamine oxidase, SIgA (ELISA); type: in vivo, C57BL/6 male mice; details: n = 6
Procedure: C57BL/6 male mice that were 6 weeks old were provided by Liaoning Changsheng Biotechnology Co., Ltd., China. All mice (20.00 ± 2.00 g, 6 weeks old) were randomly divided into 6 groups (n = 12), and they were fed adaptively for 3 days. During the whole experiment, mice can get clean water and a laboratory standard diet ad libitum, under controlled environmental conditions (40%–60% relative humidity, 25 ± 2°C temperature; lighting cycle, 12 h/d). The standard lab diet contained 18% crude protein, 4% crude fat, 5% crude fiber, 8% ash, and 10% moisture.
as §1
Based on the results of the pre‐experiment, we determined the appropriate concentration of the bacteria. The strain E. coli ATCC 25922 frozen at −20°C was incubated overnight in LB medium (37°C, 220r). The bacterial broth was transferred to a new LB medium at a ratio of 1:100 for 3–5 h to reach the logarithmic growth period. The bacterial precipitate was centrifuged and washed three times with saline to adjust the colony count to 2.0 × 10^9 CFU/ml.
as §2
To detect the content of diamine oxidase (DAO), D‐lactic acid, and secretory immunoglobulin A (SlgA) in serum, using mouse ELISA kit instruction (Alphabio, Tianjin, China).

[6] = mouse gastric juice (PBS pH 2.0, w/w 1:1) mixed with peptide v/v 1:1, 1.28 mM, 37°C, 4 h, then MIC vs E. coli 25922
[7] = 37°C, then MIC vs E. coli 25922
[8] = 37°C, 4 h, then MIC vs E. coli 25922
[9] = 37°C, 8 h, then MIC vs E. coli 25922
[10] = mouse small intestine contents + PBS pH 7.0 (w/w 1:9) mixed with peptide v/v 1:1, 1.28 mM, 37°C, 8 h, then MIC vs E. coli 25922
[11] = oral R7I 20, 30, 40 mg/kg or colistin sulfate 20 mg/kg, vs control group, p < 0.05 in most treatment groups, best in 20 mg/kg R7I

Row | Molecule | MIC after incubation with gastric juice (GAJ), 4h (Escherichia coli 25922; [6]) | MIC after incubation with gastric juice (GAJ), 1h (Escherichia coli 25922; [7]) | MIC after incubation with serum, 1h (Escherichia coli 25922; [7]) | MIC after incubation with serum, 4h (Escherichia coli 25922; [8]) | MIC after incubation with serum, 8h (Escherichia coli 25922; [9]) | Effect of the serum environment on antimicrobial activity (Escherichia coli 25922; 37°C) | MIC after incubation with small intestinal juice (SIJ), 8h (Escherichia coli 25922; [10]) | MIC after incubation with small intestinal juice (SIJ), 1h (Escherichia coli 25922; [7]) | MIC after incubation in PBS2.0, 1h (Escherichia coli 25922; then MIC vs E. coli 25922) | MIC after incubation in PBS2.0, 4h (Escherichia coli 25922; 4 h, then MIC vs E. coli 25922) | MIC after incubation in PBS2.0, 8h (Escherichia coli 25922; 8 h, then MIC vs E. coli 25922) | MIC after incubation in PBS7.0, 1h (Escherichia coli 25922; then MIC vs E. coli 25922) | MIC after incubation in PBS7.0, 4h (Escherichia coli 25922; 4 h, then MIC vs E. coli 25922) | MIC after incubation in PBS7.0, 8h (Escherichia coli 25922; 8 h, then MIC vs E. coli 25922) | also measured
1 | CC[C@H](C)[C@H](NC(=O)CN)C(=O)NCC(=O)N[C@@H](C)C(=O)N[C@H](C(=O)N[C@@H](CC(C)C)C(=O)N[C@@H](CCCCN)C(=O)N[C@H](C(=O)N[C@@H](CC(C)C)C(=O)N[C@H](C(=O)N[C@H](C(=O)NCC(=O)N[C@@H](CC(C)C)C(=O)N1CCC[C@H]1C(=O)N[C@@H](C)C(=O)N[C@@H](CC(C)C)C(=O)N[C@H](C(=O)N[C@@H](CO)C(=O)N[C@@H](Cc1c[nH]c2ccccc12)C(=O)N[C@H](C(=O)N[C@@H](CCCCN)C(=O)N[C@@H](CCCNC(=N)N)C(=O)N[C@@H](CCCCN)C(=O)N[C@@H](CCCNC(=N)N)C(=O)N[C@@H](CCC(N)=O)C(=O)N[C@@H](CCC(N)=O)C(N)=O)[C@@H](C)CC)[C@@H](C)CC)[C@@H](C)O)[C@@H](C)O)C(C)C)C(C)C [Melittin] | > 64 µM | > 64 µM | 4 µM | 8 µM | 8 µM | slightly compromised | > 64 µM | > 64 µM | 2 µM (≈ 5.69 µg/mL) | 2 µM (≈ 5.69 µg/mL) | 2 µM (≈ 5.69 µg/mL) | 2 µM (≈ 5.69 µg/mL) | 2 µM (≈ 5.69 µg/mL) | 2 µM (≈ 5.69 µg/mL) | MIC after incubation with gastric juice (GAJ), 8h (Escherichia coli 25922; mouse gastric juice (PBS pH 2.0, w/w 1:1) mixed with peptide v/v 1:1, 1.28 mM, 37°C, 8 h, then MIC vs E. coli 25922): > 64 µM; MIC after incubation with small intestinal juice (SIJ), 4h (Escherichia coli 25922; mouse small intestine contents + PBS pH 7.0 (w/w 1:9) mixed with peptide v/v 1:1, 1.28 mM, 37°C, 4 h, then MIC vs E. coli 25922): > 64 µM; Activity after incubation with small intestinal fluid for 1 min (Escherichia coli 25922; small intestinal fluid, 1 min, unused data): inactivated
2 | IRPIIRPIIRPIIRPIIRPIIRPIIRPI-NH2 [R7I] | 2 µM | 2 µM | 2 µM | 2 µM | 2 µM | no negative effect | 4 µM | 2 µM | 2 µM | 2 µM | 2 µM | 2 µM | 2 µM | 2 µM | Cytotoxicity [1]: low cytotoxicity; Resistance to pepsin, trypsin, chymotrypsin, and proteinase K [2]: excellent resistance
3 | colistin sulfate |  |  |  |  |  |  |  |  |  |  |  |  |  |  | Serum CREA level [3]: little effect (or even an increasing trend); Serum LDH level [3]: little effect (or even an increasing trend); Serum AST level ([3]; p < 0.05): decrease; Serum TBIL level ([3]; p < 0.05): decrease; Serum ALT level ([3]; p > 0.05): decrease; MDA levels in the liver [4]: significantly dropped; Serum D-lactic acid (DLA) level [5, 11]: significantly decreased; Serum diamine oxidase (DAO) level [5, 11]: significantly decreased; Serum secreted immunoglobulin A (SlgA) level vs control group ([5]; partial dose concentrations, oral): raise secreted immunoglobulin A (SlgA) levels compared to the control group, without statistical significance
